Source: patent US8247609B2, “Aminoacid derivatives containing a disulfanyl group in the form of mixed disulfanyl and aminopeptidase N inhibitors” (Pharamleads, priority 2005, dated 2012)
Where two headings read alike, the source gives them in different places. Marks after values point to notes of the source that are not given here.

Key:
Log Kow = format: physicochemical
male OF1 mice [1] = experiment: Hot plate test (52° C., jump latency) in mice; format: in vivo, mouse; details: for ED50: Mus musculus
Description: Hot plate test: this test relates to the licking and jumping reflex in mice on a plate heated at 52° C. (measurement of jump latency in the examples given). The results are expressed in % of maximum possible effect (% MPE), i.e., expressed as a percentage of analgesia, using the following equation:
Maximum latency time=240 seconds.
The results are expressed in term of mean±SEM. The differences observed are considered significant when the values of p are less than 0.05. The test used is an ANOVA test with a multiple comparison test.
Compound 15 is dissolved in a water/mannitol mixture (50 mg/ml). Jump latency times are measured 10 min after the injections by intravenous route.
Compound 15 is dissolved in a ethanol/Cremophor® EL/water mixture. Jump latency times are measured 10 min after intravenous injection.
Compound 15 is dissolved in an ethanol/PEG400/water 10/40/50 mixture.
Compounds 15 and A are dissolved in an ethanol/Cremophor EL/water 10/10/80 mixture. Jump latency times are measured 10 min after intravenous injection.
The analgesia produced by morphine or compound 15 in mice (male OF1) in the hot plate test (52° C.) was measured. Morphine in H2O/NaCl, 9/1000) or compound 15 dissolved in the vehicle EtOH/Cremophor El/water (10/10/80) is injected by IV. The results are measured 10 minutes after injection and latency time is 240 seconds (equation given in examples 15 and 17).
The analgesia produced by Δ^9 THC in mice (male OF1) in the plate hot test (52° C.) was measured. Δ^9 THC, dissolved in the vehicle EtOH/Cremophor EL/water (10/10/80), is injected by IV route. The results are measured 10 minutes after injection and latency time is 240 seconds (equation given in examples 15 and 17).
This test relates to the licking and jumping reflex in mice on a plate heated at 52° C. The results are expressed in % of maximum possible effect (% MPE), i.e., expressed as a percentage of analgesia, using the following equation:
Maximum latency time=240 s.
The mice weigh 25-30 grams.
Jump latency is measured 10 minutes after intravenous injection.

[2] = tested on: rat (male Sprague Dawley) with an inflamed paw; experiment: Vocalization threshold on paw pressure, carrageenan-inflamed paw; format: in vivo; details: 100 mg/kg per os, 180 min after carrageenan, measured 20 min after administration
Description: b) Antinociceptive effect of compound 15 (100 mg/kg par os) on vocalization threshold when pressure is applied to the paw of a rat (male Sprague Dawley) with an inflamed paw, inflammation being induced by intraplantar injection of carrageenan.
Compound 15 and a vehicle (ethanol/polyethylene glycol (PEG) 400/water, 10/40/50) are administered 180 min after intraplantar injection of carrageenan (1% in saline solution).
The baseline for vocalization threshold when pressure is applied to the paw is measured before inflammation (B) and for the inflamed paw 20 min after injection of compound 15 or the vehicle. The results are given in table 3 and are expressed as mean±SEM, n=10. The differences observed are considered significant when the values of p are less than 0.05.

[3] = tested on: mice inoculated in their right paw with NCTC 2472 cells; experiment: Osteosarcoma-induced thermal hyperalgesia, unilateral hot plate test; format: in vivo, mouse; details: for Antihyperalgesic effect when administered alone: compound 15 12.5 mg/kg 20 min before testing, or Gabapentin 6.25 mg/kg 60 min before testing
Description: The comparison and possible facilitation of compound 15 analgesic effect by Gabapentin was investigated on the animal model of bone cancer induced by intraosteal inoculation of NCTC2472 tumor cells (Honoré P. et al., Neuroscience 98 (2000), 585-588 Mendez L. et al. J. Neurosci. Methods 113 (2002), 91-97).
The methods used to measure the analgenisc effects (antihyperalgesia and allodynia) of various compounds of this animal model have been described in details and are used (Menendez L. et al. Brain Res. 969 (2003), 102-109) in these series of experiments.
Osteosarcoma-induced thermal hyperalgesia measured by the unilateral hot plate test was inhibited by the oral administration of compound 15 (25 mg/kg). This inhibitory effect peaked 20-40 min after compound 15 administration, disappearing at time 60 (FIG. 4A).
At this concentration the antagonist is unable to enter the brain supporting a peripheral analgesic effects of compound 15. ** p≦0.01. […]

Solubility in solvents = format: physicochemical
male OF1 mice [4] = experiment: Hot plate test (52° C., jump latency) in mice; format: in vivo, mouse; details: after administration per os of 200 m/kg (FIG. 2b)
[5] = 1 mg/kg IV, 10 min after injection (Table 6)
[6] = 2.5 mg/kg IV, 10 min after injection (Table 6)
[7] = 5 mg/kg IV, 10 min after injection (Table 6)
[8] = 5 mg/kg IV, ethanol/Cremophor EL/water 10/10/80, 10 min after injection (Table 5)

Compound: 1-(2-(1-(1-ethoxycarbonyloxyethoxycarbonyl)-2-hydroxypropylcarbamoyl)-3-thiophen-3-ylpropyldisulfanylmethyl)-3-methylsulfanylpropyl-ammonium trifluoroacetate [Compound 12e]
- Log Kow (Log Kow): 0.76

Compound: 1-(2-(1-ethoxycarbonylmethyloxycarbonylethylcarbamoyl)-3-thiophen-3-yl-propyldi sulfanylmethyl)-3-methylsulfanylpropyl-ammonium trifluoroacetate [Compound 12d]
- Log Kow (Log Kow): 1.35

Compound: CSCCC(N)CSSCC(Cc1ccsc1)C(=O)NC(C)C(=O)OCC(COC(C)=O)OC(C)=O.O=C(O)C(F)(F)F (centres unmarked) [Compound 12a, 1-(2-(1-(2,3-diacetoxypropoxycarbonyl)-ethylcarbamoyl)-3-thiophen-3-ylpropyldisulfanylmethyl)-3-methylsulfanylpropyl-ammonium trifluoroacetate]
- Log Kow (Log Kow): 1.31

Compound: CSCCC(N)CSSCC(Cc1ccsc1)C(=O)NC(C)C(=O)OCCS(C)(=O)=O.O=C(O)C(F)(F)F (centres unmarked) [Compound 12b, 1-(2-(1-(2-methanesulfonylethoxycarbonyl)-ethylcarbamoyl)-3-thiophen-3-ylpropyldisulfanylmethyl)-3-methylsulfanylpropyl-ammonium trifluoroacetate]
- Log Kow (Log Kow): −0.13

Compound: CCOC(=O)OC(C)OC(=O)C(C)NC(=O)C(CSSCC(N)CCSC)Cc1ccsc1.O=C(O)C(F)(F)F (centres unmarked) [Compound 12c]
- Log Kow (Log Kow): 1.63

Compound: CSCCC(N)CSSCC(Cc1ccsc1)C(=O)NC(C)C(=O)OC(COC(C)=O)COC(C)=O.O=C(O)C(F)(F)F (centres unmarked) [Compound 12f, 1-(2-(1-(2-acetoxy-1-acetoxymethylethoxycarbonyl)-ethylcarbamoyl)-3-thiophen-3-ylpropyldisulfanylmethyl)-3-methylsulfanylpropyl-ammonium trifluoroacetate]
- Log Kow (Log Kow): 1.31

Compound: CSCCC(N)CSSCC(Cc1ccsc1)C(=O)NC(C)C(=O)OC(CO)CO.O=C(O)C(F)(F)F (centres unmarked) [Compound 12g, 1-(2-(1-(2-hydroxy-1-hydroxymethylethoxycarbonyl)-ethylcarbamoyl)-3-thiophen-3-ylpropyldisulfanylmethyl)-3-methylsulfanylpropyl-ammonium trifluoroacetate]
- Log Kow (Log Kow): −0.29

Compound: CSCCC(N)CSSCC(Cc1ccsc1)C(=O)NC(C)C(=O)OCC1OC(O)C(O)C(O)C1O.O=C(O)C(F)(F)F (centres unmarked) [Compound 12h, 1-(2-(1-(3,4,5,6-tetrahydroxytetrahydropyran-2-ylmethoxycarbonyl)ethylcarbamoyl)-3-thiophen-3-yl-propyldisulfanylmethyl)-3-methylsulfanylpropyl-ammonium trifluoroacetate]
- Log Kow (Log Kow): −1.15

Compound: CCOC(=O)OC(C)OC(=O)C(NC(=O)C(CSSCC(N)CCSC)Cc1ccccc1)C(C)O.O=C(O)C(F)(F)F (centres unmarked) [Compound 12i]
- Log Kow (Log Kow): 0.76

Compound: CSCCC(N)CSSCC(Cc1ccccc1)C(=O)NC(C(=O)OC(COC(C)=O)COC(C)=O)C(C)O.O=C(O)C(F)(F)F (centres unmarked) [Compound 12j, 1-(2-(1-(2-acetoxy-1-acetoxymethyl-thoxycarbonyl)-2-hydroxypropylcarbamoyl)-3-phenylpropyldisulfanylmethyl)-3-methylsulfanylpropyl-ammonium trifluoroacetate]
- Log Kow (Log Kow): 0.44

Compound: CCOC(=O)OC(C)OC(=O)CNC(=O)C(CSSCC(N)CCSC)Cc1ccccc1.O=C(O)C(F)(F)F (centres unmarked) [Compound 12k]
- Log Kow (Log Kow): 1.39

Compound: CCOC(=O)OC(C)OC(=O)CNC(=O)C(CSSC[C@@H](N)CCSC)Cc1ccccc1 (some centres unmarked) [Compound 15]
- % analgesia (male OF1 mice [1]; [5]): 46.4 ± 5.6 %
- % analgesia (male OF1 mice [1]; [6]): 56.3 ± 6.9 %
- % analgesia (male OF1 mice [1]; 2.5 mg/kg IV, ethanol/Cremophor EL/water, 10 min after injection): 56.2 ± 6.9 %
- % analgesia (male OF1 mice [1]; 2.5 mg/kg IV, ethanol/Tween 20/water, 10 min after injection): 48.4 ± 10.2 %
- % analgesia (male OF1 mice [1]; 2.5 mg/kg IV, ethanol/Tween 80/water, 10 min after injection): 44.7 ± 6.2 %
- % analgesia (male OF1 mice [1]; [7]): 87.6 ± 4.6 %
- % analgesia (male OF1 mice [1]; [8]): 87.6 ± 4.6 %
- % analgesia (male OF1 mice [1]; 10 mg/kg IV, water/mannitol vehicle, 10 min after injection, male mice): 33.4 ± 7.5 %
- % analgesia (male OF1 mice [1]; 20 mg/kg IV, water/mannitol vehicle, 10 min after injection, male mice): 59.2 ± 9.6 %
- % analgesia (male OF1 mice [1]; 40 mg/kg IV, water/mannitol vehicle, 10 min after injection, male mice): 90.2 ± 7.0 %
- ED50 (male OF1 mice [1]; 10 min, IV, ethanol/Cremophor EL/water, 10 min after injection (FIG. 1), read-out: ED50 (analgesic response)): 1.9 ± 0.4 mg/kg
- ED50 (male OF1 mice [1]; 10 min, IV, water/mannitol vehicle, 10 min after injection, read-out: Effective dose 50, ED50): 16.1 mg/kg
- ED50 (male OF1 mice [1]; per os 20 min before test, ethanol/PEG400/water 10/40/50 (FIG. 2a), read-out: ED50 (analgesic effect)): 135 mg/kg
- Vocalization threshold [2]: 292.5 ± 20.1 g
- Time at which inhibitory effect disappears ([3]; 25 mg/kg oral): 60
- Time of peak inhibitory effect after administration ([3]; 25 mg/kg oral): 20 to 40 min
- Osteosarcoma-induced thermal hyperalgesia ([3]; 25 mg/kg oral (FIG. 4A)): inhibited
- Antihyperalgesic effect in presence of naloxone-methiodide ([3]; 25 mg/kg p.o. 20 min before testing, naloxone-methiodide 2 mg/kg i.p. 20 min before testing (FIG. 5)): completely inhibited
- Effect on thermal latencies, inoculated versus control paws ([3]; 25 mg/kg p.o., 20 min after administration (FIG. 4B)): exclusively increases the latencies measured in the inoculated right paws
- Antihyperalgesic effect when administered alone [3]: do not produce any antihyperalgesic effect
- Solubility in ethanol/Tween®/water solvents (Solubility in solvents): soluble
- Persistence of analgesic effect (male OF1 mice [4]): at least two hours

Compound: CSCCC(N)CSSCC(Cc1ccccc1)C(=O)NC(Cc1ccccc1)C(=O)OCc1ccccc1 (centres unmarked) [Compound A, reference compound]
- % analgesia (male OF1 mice [1]; [8]): 51.1 ± 7.6 %
- Solubility in aqueous or hydrophilic solvents (Solubility in solvents): poorly soluble

Compound: NCC1(CC(=O)O)CCCCC1 [Gabapentin]
- Antihyperalgesic effect ([3]; 6.25 mg/kg i.p., 60 minutes after injection (FIG. 6B)): subeffective
- Antihyperalgesic effect ([3]; 12.5 mg/kg i.p., 60 minutes after injection): significant antihyperalgesic effect
- Antihyperalgesic effect ([3]; 25 mg/kg i.p., 40 and 60 min after injection (FIG. 6A)): clear antihyperalgesic effect
- Withdrawal latencies ([3]; 25 mg/kg i.p., 20 min after administration): No modification of withdrawal latencies
- Antihyperalgesic effect ([3]; 25 mg/kg i.p., 60 minutes after injection): completely suppressed the hyperalgesic effect
- Withdrawal latencies of contralateral paws ([3]; 6.25-25 mg/kg i.p.): None of these doses of Gabapentin modified the withdrawal latencies of contralateral paws
- Antihyperalgesic effect when administered alone [3]: do not produce any antihyperalgesic effect

Compound: CN1CC[C@]23c4c5ccc(O)c4O[C@H]2[C@@H](O)C=C[C@H]3[C@H]1C5 [morphine, reference compound]
- % analgesia (male OF1 mice [1]; [5]): 45.5 ± 4.5 %
- % analgesia (male OF1 mice [1]; [6]): 66 ± 6.0 %
- % analgesia (male OF1 mice [1]; [7]): 100*** %
- ED50 (male OF1 mice [1]; iv, 10 min, read-out: ED50 (analgesic response)): 1.3 ± 0.2 mg/kg

Compound: CCCCCc1cc(O)c2c(c1)OC(C)(C)[C@@H]1CCC(C)=C[C@@H]21 [Δ^9 THC, Δ^9 tetrahydrocannabinol, reference compound]
- % analgesia (male OF1 mice [1]; 0.188 mg/kg IV, EtOH/Cremophor EL/water, 10 min after injection): 0.4 ± 3.9%
- % analgesia (male OF1 mice [1]; 0.375 mg/kg IV, EtOH/Cremophor EL/water, 10 min after injection): 18.2 ± 6.4%
- % analgesia (male OF1 mice [1]; 0.75 mg/kg IV, EtOH/Cremophor EL/water, 10 min after injection): 41.2 ± 12.7 %
- % analgesia (male OF1 mice [1]; 1.5 mg/kg IV, EtOH/Cremophor EL/water, 10 min after injection): 57.2 ± 10.9 %
